Measurements published in publication PMC10010643 (Cancer Chemotherapy and Pharmacology, 2023).

Experiment: Safety and tolerability, Part A single ascending-dose phase in healthy participants
Format: in vivo, human
Protocol: A further two cohorts were recruited. […] Each individual participated in one treatment period only, with the exception of the food-effect cohort (cohort A3) in which there were two treatment periods separated by at least 7 days washout. Participants resided at the Clinical Research Unit (CRU) from 1 day ahead of dosing (day − 1) to day 3 and returned for a follow-up visit 5–7 days after their final dose. For all cohorts, doses were administered in the fasted state in the morning of day 1 of Treatment Period 1. In the food-effect cohort, doses were given 30 min after the start of a high-fat breakfast (973 calories total: approximately 150 protein calories, 250 carbohydrate calories, and 500–600 fat calories) on day 1 of Treatment Period 2. For cohorts A1 to A5 in Treatment Period 1, dosing occurred such that one pair (one active and one placebo) were dosed at least 24 h before the remaining participants. Continuation to dose those who remained was at the investigator’s discretion. Escalating doses were administered following satisfactory sponsor and investigator review of the safety and tolerability data (up to 48 h post-final dose) and PK data (up to 24 h post-final dose) from the lower dose levels.
Safety and tolerability assessments included adverse event (AE) monitoring, physical examinations, laboratory assessments (hematology, clinical chemistry, and urinalysis), vital signs (blood pressure, pulse rate, and body temperature) and ECG.
No formal statistical assessment was performed for the safety analysis.

[1] = Part A 50 mg (1 x 50 mg), fasted
[2] = Part A 50 mg (10 x 5 mg), fasted

OC[C@H]1O[C@H](Sc2cncc(Br)c2)[C@H](O)[C@@H](n2cc(-c3cc(F)c(F)c(F)c3)nn2)[C@H]1O [GB1211]
Effect of food intake or capsule formulation on TEAEs (Part A): no effect
Participants with a TEAE possibly related to treatment, GB1211 (Part A): 3
Treatment- or dose-related trend in TEAEs (Part A): no apparent treatment- or dose-related trend
TEAE Back pain, no. of AEs (Part A 5 mg, fasted): 1
TEAE Back pain, participants (Part A 5 mg, fasted): 1 (16.7%) n (%)
TEAE Constipation, participants (Part A 5 mg, fasted): 0 n (%)
TEAE Cough, participants (Part A 5 mg, fasted): 0 n (%)
TEAE Decreased appetite, participants (Part A 5 mg, fasted): 0 n (%)
TEAE Diarrhea, no. of AEs (Part A 5 mg, fasted): 1
TEAE Diarrhea, participants (Part A 5 mg, fasted): 1 (16.7%) n (%)
TEAE Dry mouth, participants (Part A 5 mg, fasted): 0 n (%)
TEAE Dry skin, participants (Part A 5 mg, fasted): 0 n (%)
TEAE Dyspepsia, participants (Part A 5 mg, fasted): 0 n (%)
TEAE Gastrointestinal disorders, no. of AEs (Part A 5 mg, fasted): 1
TEAE Gastrointestinal disorders, participants (Part A 5 mg, fasted): 1 (16.7%) n (%)
TEAE General disorders and administration site conditions, no. of AEs (Part A 5 mg, fasted): 1
TEAE General disorders and administration site conditions, participants (Part A 5 mg, fasted): 1 (16.7%) n (%)
TEAE Headache, participants (Part A 5 mg, fasted): 0 n (%)
TEAE Infections and infestations, no. of AEs (Part A 5 mg, fasted): 1
TEAE Infections and infestations, participants (Part A 5 mg, fasted): 1 (16.7%) n (%)
TEAE Injury, poisoning and procedural complications, participants (Part A 5 mg, fasted): 0 n (%)
TEAE Medical device site reaction, no. of AEs (Part A 5 mg, fasted): 1
TEAE Medical device site reaction, participants (Part A 5 mg, fasted): 1 (16.7%) n (%)
TEAE Metabolism and nutrition disorders, participants (Part A 5 mg, fasted): 0 n (%)
TEAE Musculoskeletal and connective tissue disorders, no. of AEs (Part A 5 mg, fasted): 1
TEAE Musculoskeletal and connective tissue disorders, participants (Part A 5 mg, fasted): 1 (16.7%) n (%)
TEAE Nasopharyngitis, no. of AEs (Part A 5 mg, fasted): 1
TEAE Nasopharyngitis, participants (Part A 5 mg, fasted): 1 (16.7%) n (%)
TEAE Nervous system disorders, participants (Part A 5 mg, fasted): 0 n (%)
TEAE Pain, participants (Part A 5 mg, fasted): 0 n (%)
TEAE Rash, participants (Part A 5 mg, fasted): 0 n (%)
TEAE Respiratory, thoracic and mediastinal disorders, participants (Part A 5 mg, fasted): 0 n (%)
TEAE Skin and subcutaneous tissue disorders, participants (Part A 5 mg, fasted): 0 n (%)
TEAE Wound, participants (Part A 5 mg, fasted): 0 n (%)
TEAE Back pain, participants (Part A 20 mg, fasted): 0 n (%)
TEAE Constipation, participants (Part A 20 mg, fasted): 0 n (%)
TEAE Cough, participants (Part A 20 mg, fasted): 0 n (%)
TEAE Decreased appetite, participants (Part A 20 mg, fasted): 0 n (%)
TEAE Diarrhea, participants (Part A 20 mg, fasted): 0 n (%)
TEAE Dry mouth, participants (Part A 20 mg, fasted): 0 n (%)
TEAE Dry skin, participants (Part A 20 mg, fasted): 0 n (%)
TEAE Dyspepsia, participants (Part A 20 mg, fasted): 0 n (%)
TEAE Gastrointestinal disorders, participants (Part A 20 mg, fasted): 0 n (%)
TEAE General disorders and administration site conditions, no. of AEs (Part A 20 mg, fasted): 1
TEAE General disorders and administration site conditions, participants (Part A 20 mg, fasted): 1 (16.7%) n (%)
TEAE Headache, participants (Part A 20 mg, fasted): 0 n (%)
TEAE Infections and infestations, participants (Part A 20 mg, fasted): 0 n (%)
TEAE Injury, poisoning and procedural complications, participants (Part A 20 mg, fasted): 0 n (%)
TEAE Medical device site reaction, participants (Part A 20 mg, fasted): 0 n (%)
TEAE Metabolism and nutrition disorders, participants (Part A 20 mg, fasted): 0 n (%)
TEAE Musculoskeletal and connective tissue disorders, participants (Part A 20 mg, fasted): 0 n (%)
TEAE Nasopharyngitis, participants (Part A 20 mg, fasted): 0 n (%)
TEAE Nervous system disorders, participants (Part A 20 mg, fasted): 0 n (%)
TEAE Pain, no. of AEs (Part A 20 mg, fasted): 1
TEAE Pain, participants (Part A 20 mg, fasted): 1 (16.7%) n (%)
TEAE Rash, participants (Part A 20 mg, fasted): 0 n (%)
TEAE Respiratory, thoracic and mediastinal disorders, participants (Part A 20 mg, fasted): 0 n (%)
TEAE Skin and subcutaneous tissue disorders, participants (Part A 20 mg, fasted): 0 n (%)
TEAE Wound, participants (Part A 20 mg, fasted): 0 n (%)
TEAE Back pain, participants [1]: 0 n (%)
TEAE Constipation, participants [1]: 0 n (%)
TEAE Cough, no. of AEs [1]: 1
TEAE Cough, participants [1]: 1 (16.7%) n (%)
TEAE Decreased appetite, participants [1]: 0 n (%)
TEAE Diarrhea, participants [1]: 0 n (%)
TEAE Dry mouth, participants [1]: 0 n (%)
TEAE Dry skin, participants [1]: 0 n (%)
TEAE Dyspepsia, participants [1]: 0 n (%)
TEAE Gastrointestinal disorders, participants [1]: 0 n (%)
TEAE General disorders and administration site conditions, participants [1]: 0 n (%)
TEAE Headache, participants [1]: 0 n (%)
TEAE Infections and infestations, participants [1]: 0 n (%)
TEAE Injury, poisoning and procedural complications, participants [1]: 0 n (%)
TEAE Medical device site reaction, participants [1]: 0 n (%)
TEAE Metabolism and nutrition disorders, participants [1]: 0 n (%)
TEAE Musculoskeletal and connective tissue disorders, participants [1]: 0 n (%)
TEAE Nasopharyngitis, participants [1]: 0 n (%)
TEAE Nervous system disorders, participants [1]: 0 n (%)
TEAE Pain, participants [1]: 0 n (%)
TEAE Rash, participants [1]: 0 n (%)
TEAE Respiratory, thoracic and mediastinal disorders, no. of AEs [1]: 1
TEAE Respiratory, thoracic and mediastinal disorders, participants [1]: 1 (16.7%) n (%)
TEAE Skin and subcutaneous tissue disorders, participants [1]: 0 n (%)
TEAE Wound, participants [1]: 0 n (%)
TEAE Back pain, participants (Part A 50 mg (1 x 50 mg), fed): 0 n (%)
TEAE Constipation, participants (Part A 50 mg (1 x 50 mg), fed): 0 n (%)
TEAE Cough, participants (Part A 50 mg (1 x 50 mg), fed): 0 n (%)
TEAE Decreased appetite, participants (Part A 50 mg (1 x 50 mg), fed): 0 n (%)
TEAE Diarrhea, participants (Part A 50 mg (1 x 50 mg), fed): 0 n (%)
TEAE Dry mouth, participants (Part A 50 mg (1 x 50 mg), fed): 0 n (%)
TEAE Dry skin, no. of AEs (Part A 50 mg (1 x 50 mg), fed): 1
TEAE Dry skin, participants (Part A 50 mg (1 x 50 mg), fed): 1 (16.7%) n (%)
TEAE Dyspepsia, participants (Part A 50 mg (1 x 50 mg), fed): 0 n (%)
TEAE Gastrointestinal disorders, participants (Part A 50 mg (1 x 50 mg), fed): 0 n (%)
TEAE General disorders and administration site conditions, participants (Part A 50 mg (1 x 50 mg), fed): 0 n (%)
TEAE Headache, participants (Part A 50 mg (1 x 50 mg), fed): 0 n (%)
TEAE Infections and infestations, participants (Part A 50 mg (1 x 50 mg), fed): 0 n (%)
TEAE Injury, poisoning and procedural complications, participants (Part A 50 mg (1 x 50 mg), fed): 0 n (%)
TEAE Medical device site reaction, participants (Part A 50 mg (1 x 50 mg), fed): 0 n (%)
TEAE Metabolism and nutrition disorders, participants (Part A 50 mg (1 x 50 mg), fed): 0 n (%)
TEAE Musculoskeletal and connective tissue disorders, participants (Part A 50 mg (1 x 50 mg), fed): 0 n (%)
TEAE Nasopharyngitis, participants (Part A 50 mg (1 x 50 mg), fed): 0 n (%)
TEAE Nervous system disorders, participants (Part A 50 mg (1 x 50 mg), fed): 0 n (%)
TEAE Pain, participants (Part A 50 mg (1 x 50 mg), fed): 0 n (%)
TEAE Rash, participants (Part A 50 mg (1 x 50 mg), fed): 0 n (%)
TEAE Respiratory, thoracic and mediastinal disorders, participants (Part A 50 mg (1 x 50 mg), fed): 0 n (%)
TEAE Skin and subcutaneous tissue disorders, no. of AEs (Part A 50 mg (1 x 50 mg), fed): 1
TEAE Skin and subcutaneous tissue disorders, participants (Part A 50 mg (1 x 50 mg), fed): 1 (16.7%) n (%)
TEAE Wound, participants (Part A 50 mg (1 x 50 mg), fed): 0 n (%)
TEAE Back pain, no. of AEs [2]: 1
TEAE Back pain, participants [2]: 1 (16.7%) n (%)
TEAE Constipation, participants [2]: 0 n (%)
TEAE Cough, participants [2]: 0 n (%)
TEAE Decreased appetite, participants [2]: 0 n (%)
TEAE Diarrhea, participants [2]: 0 n (%)
TEAE Dry mouth, participants [2]: 0 n (%)
TEAE Dry skin, participants [2]: 0 n (%)
TEAE Dyspepsia, participants [2]: 0 n (%)
TEAE Gastrointestinal disorders, participants [2]: 0 n (%)
TEAE General disorders and administration site conditions, participants [2]: 0 n (%)
TEAE Headache, participants [2]: 0 n (%)
TEAE Infections and infestations, participants [2]: 0 n (%)
TEAE Injury, poisoning and procedural complications, participants [2]: 0 n (%)
TEAE Medical device site reaction, participants [2]: 0 n (%)
TEAE Metabolism and nutrition disorders, participants [2]: 0 n (%)
TEAE Musculoskeletal and connective tissue disorders, no. of AEs [2]: 1
TEAE Musculoskeletal and connective tissue disorders, participants [2]: 1 (16.7%) n (%)
TEAE Nasopharyngitis, participants [2]: 0 n (%)
TEAE Nervous system disorders, participants [2]: 0 n (%)
TEAE Pain, participants [2]: 0 n (%)
TEAE Rash, participants [2]: 0 n (%)
TEAE Respiratory, thoracic and mediastinal disorders, participants [2]: 0 n (%)
TEAE Skin and subcutaneous tissue disorders, participants [2]: 0 n (%)
TEAE Wound, participants [2]: 0 n (%)
TEAE Back pain, participants (Part A 100 mg, fasted): 0 n (%)
TEAE Constipation, participants (Part A 100 mg, fasted): 0 n (%)
TEAE Cough, participants (Part A 100 mg, fasted): 0 n (%)
TEAE Decreased appetite, participants (Part A 100 mg, fasted): 0 n (%)
TEAE Diarrhea, participants (Part A 100 mg, fasted): 0 n (%)
TEAE Dry mouth, participants (Part A 100 mg, fasted): 0 n (%)
TEAE Dry skin, participants (Part A 100 mg, fasted): 0 n (%)
TEAE Dyspepsia, no. of AEs (Part A 100 mg, fasted): 1
TEAE Dyspepsia, participants (Part A 100 mg, fasted): 1 (16.7%) n (%)
TEAE Gastrointestinal disorders, no. of AEs (Part A 100 mg, fasted): 1
TEAE Gastrointestinal disorders, participants (Part A 100 mg, fasted): 1 (16.7%) n (%)
TEAE General disorders and administration site conditions, participants (Part A 100 mg, fasted): 0 n (%)
TEAE Headache, participants (Part A 100 mg, fasted): 0 n (%)
TEAE Infections and infestations, no. of AEs (Part A 100 mg, fasted): 1
TEAE Infections and infestations, participants (Part A 100 mg, fasted): 1 (16.7%) n (%)
TEAE Injury, poisoning and procedural complications, participants (Part A 100 mg, fasted): 0 n (%)
TEAE Medical device site reaction, participants (Part A 100 mg, fasted): 0 n (%)
TEAE Metabolism and nutrition disorders, participants (Part A 100 mg, fasted): 0 n (%)
TEAE Musculoskeletal and connective tissue disorders, participants (Part A 100 mg, fasted): 0 n (%)
TEAE Nasopharyngitis, no. of AEs (Part A 100 mg, fasted): 1
TEAE Nasopharyngitis, participants (Part A 100 mg, fasted): 1 (16.7%) n (%)
TEAE Nervous system disorders, participants (Part A 100 mg, fasted): 0 n (%)
